Consider 11 compounds from patent US8436016B2, “Fused heterocyclic M1 receptor positive allosteric modulators” (priority 2008, dated 2013).

pEC50: −log10 of the molar value. Where two headings read alike, the source gives them in different places.

The test concerns the target T1, acetylcholine muscarinic M1 receptor (Homo sapiens, UniProt P11229).
T1 construct: expressed in transfected cells; host or cells: CHOnfat (CHO cells with an NFAT reporter background) expressing hM1, kept under Geneticin selection
T1 sequence (P11229 1-460): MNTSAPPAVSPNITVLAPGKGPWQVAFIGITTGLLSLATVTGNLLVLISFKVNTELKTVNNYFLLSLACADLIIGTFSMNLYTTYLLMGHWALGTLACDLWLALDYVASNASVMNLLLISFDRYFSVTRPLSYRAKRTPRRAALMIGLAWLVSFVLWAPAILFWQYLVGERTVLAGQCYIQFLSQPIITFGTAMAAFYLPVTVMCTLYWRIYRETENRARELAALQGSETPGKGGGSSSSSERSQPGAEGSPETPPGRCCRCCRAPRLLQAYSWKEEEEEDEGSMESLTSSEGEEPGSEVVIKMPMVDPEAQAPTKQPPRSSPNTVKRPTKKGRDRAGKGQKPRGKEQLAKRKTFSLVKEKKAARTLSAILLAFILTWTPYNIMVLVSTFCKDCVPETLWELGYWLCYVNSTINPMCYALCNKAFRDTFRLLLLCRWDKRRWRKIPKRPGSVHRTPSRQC
Kind of test: muscarinic FLIPR assay: potentiation of acetylcholine (EC20)-stimulated intracellular Ca2+ in CHOnfat/hM1 cells. The format is cell-based. Here is the method: The assay studies the effect of one or several concentrations of test compounds on basal or acetylcholine-stimulated Ca^2+ levels using FLIPR.
Compounds are prepared and subjected to a preincubation period of 4 min. Thereafter, a single EC20 concentration of acetylcholine is added to each well (3 nM final). The intracellular Ca^2+ level of each sample is measured and compared to an acetylcholine control to determine any modulatory activity.
Cells: CHOnfat/hM1, hM2, hM3 or hM4 cells are plated 24 hr before the assay at a density of 18,000 cells/well (100 μL) in a 384 well plate. CHOnfat/hM1 and CHOnfat/hM3 Growth Medium: 90% DMEM (Hi Glucose); 10% HI FBS; 2 mM L-glutamine; 0.1 mM NEAA; Pen-Strep; and 1 mg/ml Geneticin, are added. For M2Gqi5CHOnfat and M4Gqi5CHOnfat cells, an additional 600 μg/ml hygromycin is added.
Buffers. […] Dye Loading Buffer: Assay Buffer plus 1% Fetal Bovine Serum and Fluo-4AM/Pluronic Acid Mixture. […] 20% Pluronic Acid Solution stock, with a concentration of 0.04% in Buffer, 0.02% in Assay.
65 μL of 2 mM Fluo-4AM are mixed with 130 μL of 20% Pluronic Acid. The resulting solution and 650 μL FBS is added to the assay buffer for a total volume of 65 mL. Positive Controls: 4-Br-A23187: 10 mM in DMSO; final concentration 10 μM. Acetylcholine: 10 mM in water, working stock at both 20 μM and 30 μM in assay buffer, final concentration of 10 μM. This is used to check the maximum stimulation of the CHOK1/hM1 cells. 20 μM (2×) acetylcholine is added in the preincubation part of the assay, and the 30 μM (3×) stock is added in the second part. (EC20)Acetylcholine: 10 mM in water, working stock of 9 nM (3×), and final concentration in assay is 3 nM. This is used after the preincubation with test compounds. Addition of the EC20 Acetylcholine to each well with a test compound will ascertain any modulator activity. 24 wells contain 3 nM Acetylcholine alone as a control.
Determining Activity of Putative Compounds:
Four 96-well plates are combined into a 384-well plate using Mosquito Nanolitre Pipetting System by transferring 1 μl of serial diluted compounds to each well, and 1 mM acetylcholine (100× stock concentration) were added as a control. Using Term, 49 μl assay buffer is added to each well of the 384-well plate right before assay.
In a 96-well Whatman 2 ml Uniplate, 9 nM Acetylcholine (3×) is pipetted into wells corresponding to the screening compounds and into control wells. The 30 μM acetylcholine control (3×) is added into control wells and the 3× agonist plate is transferred into a 384-well plate.
Cells are washed three times with 100 μL of buffer, leaving 30 μL of buffer in each well. Using Multimek, 30 μL of Dye Loading Buffer is added into each well and incubated at 37° C., 5% CO2 for up to one hr.
After 60 min, the cells are washed three times with 100 μL of buffer, leaving 30 μL of buffer in each well. The cell plate, screening plate, and agonist addition plates are placed on the platform in the FLIPR and the door is closed. A signal test to check background fluorescence and basal fluorescence signal is performed. Laser intensity is adjusted if necessary.
4 min of preincubation with the test compounds is provided to determine any agonist activity on the M1 receptor by comparison to the 1 mM acetylcholine control. After preincubation, the EC20 value of acetylcholine (3 nM final) is added to determine any modulator activity.
The inflection point is calculated from the FLIPR values, and is a measure of activity.

The mark [1] stands for this setting: CHOnfat/hM1 cells, FLIPR, 4 min preincubation, then EC20 acetylcholine (3 nM final), read-out: IP Value (inflection point).

`O=C(O)c1cn(Cc2ccc3nccnc3c2)c2cccc(F)c2c1=O` [Example 15]: the pEC50 under setting [1] is 6.30. The same measure, in the same setting: the value for `O=C(O)c1cn(Cc2cc3ccccc3s2)c2cccc(F)c2c1=O` [Example 56] was 6.83. Turning to `O=C(O)c1cn(Cc2ccc3c(c2)OCCO3)c2cccc(F)c2c1=O` [Example 27], the pEC50 is 7.54. Turning to `O=C(O)c1cn(Cc2cccc3ccncc23)c2cccc(F)c2c1=O` [Example 73], the pEC50 under setting [1] was 5.89. For `Cn1ncc2cc(Cn3cc(C(=O)O)c(=O)c4c(F)cccc43)ccc21` [Example 1, 5-Fluoro-1-[(1-methyl-1H-indazol-5-yl)methyl]-4-oxo-1,4-dihydroquinoline-3-carboxylic acid], the pEC50 was 7.14. Still for that read-out and setting: the value for `O=C(O)c1cn(Cc2ccc3ccccc3c2)c2c(F)cccc2c1=O` [Example 4] was 7.10; that for `O=C1Cc2cc(Cn3cc(C(=O)O)c(=O)c4c(F)cccc43)ccc2N1` [Example 53] was 7.42. As to `O=C(O)c1cn(Cc2cc3ccccc3[nH]2)c2cccc(F)c2c1=O` [Example 58], the pEC50 was 6.18. Same read-out and setting: the value for `O=C(O)c1cn(Cc2ccc3[nH]ccc3c2)c2cccc(F)c2c1=O` [Example 33] was 7.03. Regarding `O=C(O)c1cn(Cc2ccc3[nH]cnc3c2)c2cccc(F)c2c1=O` [Example 42], under setting [1], the pEC50 is 6.64. Still for that read-out and setting: the value for `O=C(O)c1cn(Cc2ccc3cc(F)ccc3c2)c2cccc(F)c2c1=O` [Example 3, 5-Fluoro-1-[(6-fluoro-2-naphthyl)methyl]-4-oxo-1,4-dihydroquinoline-3-carboxylic acid] was 6.58.
